This is an account of results in US20240270762A1, “PENICILLIN-BINDING PROTEIN INHIBITORS” (priority 2021, published 2024).

pEC50: −log10 of the molar value. Converted amounts (≈) assume the structure as drawn.

The test system of assay [1] is P. aeruginosa (ΔmexAB-oprM). Nature of the assay: Broth microdilution MIC in iron-depleted CAMHB (IDM). It counts as cell-based. The note with it: Pseudomonas aeruginosa, read-out: Minimum inhibitory concentration, P. aeruginosa ΔmexAB-oprM.
A further assay has as its system P. aeruginosa CDC-0095. Description: microbe, parasite or virus in culture. It counts as cell-based. The note with it: Pseudomonas aeruginosa, CDC0095, read-out: Minimum inhibitory concentration, P. aeruginosa CDC-0095.
The next assay concerns P. aeruginosa CDC-0110. Description: microbe, parasite or virus in culture. The class given is cell-based. The following applies: Pseudomonas aeruginosa, CDC0110, read-out: Minimum inhibitory concentration, P. aeruginosa CDC-0110.
For a further assay, the system named is P. aeruginosa ATCC 27853. Nature of the assay: microbe, parasite or virus in culture. The note with it: Pseudomonas aeruginosa, ATCC27853, read-out: Minimum inhibitory concentration, P. aeruginosa ATCC 27853. It counts as cell-based.
Assay [2] relates to B. humptydooensis ATCC BAA-2767. Description: microbe, parasite or virus in culture. The class given is cell-based. The following applies: Burkholderia humptydooensis, ATCCBAA2767, read-out: Minimum inhibitory concentration (MIC), B. humptydooensis ATCC BAA-2767.
For another assay, the system named is B. pseudomallei Bp82. Nature of the assay: microbe, parasite or virus in culture. It counts as cell-based. The note with it: Burkholderia pseudomallei, BP82, read-out: Minimum inhibitory concentration, B. pseudomallei Bp82.
The test system of another assay is P. aeruginosa CDC-0054. Nature of the assay: microbe, parasite or virus in culture. It counts as cell-based. The note with it: Pseudomonas aeruginosa, CDC0054, read-out: Minimum inhibitory concentration, P. aeruginosa CDC-0054.
Assay [3] has as its system B. thailandensis ATCC 700388. Description: microbe, parasite or virus in culture. The class given is cell-based. The note with it: Burkholderia thailandensis, ATCC700388, read-out: Minimum inhibitory concentration (MIC), B. thailandensis ATCC 700388.
Another assay has as its system P. aeruginosa ATCC 35151. Nature of the assay: microbe, parasite or virus in culture. It counts as cell-based. The note with it: Pseudomonas aeruginosa, ATCC35151, read-out: Minimum inhibitory concentration, P. aeruginosa ATCC 35151.
The next assay has as its target A. baumannii PBP2 (Acinetobacter baumannii, UniProt D0C8Z9). Description: Bocillin-FL competition binding via gel filtration, A. baumannii PBP2. An outline of the steps: (§1)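 Competitive equilibrium binding with Bocillin-FL reporter: PBP pre-incubated with inhibitor dilutions, Bocillin-FL added, 15 min incubation. Labelled enzyme isolated by size-exclusion spin plates, fluorescence measured; EC50 obtained by fitting bound fraction against inhibitor concentration with a Hill-coefficient model.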
(SEC sorts molecules by how far they enter the pores of the column.)

Another assay deals with T1, A. baumannii PBP1a (Acinetobacter baumannii, UniProt A0ABX6CK30).
T1 sequence (A0ABX6CK30 1-851): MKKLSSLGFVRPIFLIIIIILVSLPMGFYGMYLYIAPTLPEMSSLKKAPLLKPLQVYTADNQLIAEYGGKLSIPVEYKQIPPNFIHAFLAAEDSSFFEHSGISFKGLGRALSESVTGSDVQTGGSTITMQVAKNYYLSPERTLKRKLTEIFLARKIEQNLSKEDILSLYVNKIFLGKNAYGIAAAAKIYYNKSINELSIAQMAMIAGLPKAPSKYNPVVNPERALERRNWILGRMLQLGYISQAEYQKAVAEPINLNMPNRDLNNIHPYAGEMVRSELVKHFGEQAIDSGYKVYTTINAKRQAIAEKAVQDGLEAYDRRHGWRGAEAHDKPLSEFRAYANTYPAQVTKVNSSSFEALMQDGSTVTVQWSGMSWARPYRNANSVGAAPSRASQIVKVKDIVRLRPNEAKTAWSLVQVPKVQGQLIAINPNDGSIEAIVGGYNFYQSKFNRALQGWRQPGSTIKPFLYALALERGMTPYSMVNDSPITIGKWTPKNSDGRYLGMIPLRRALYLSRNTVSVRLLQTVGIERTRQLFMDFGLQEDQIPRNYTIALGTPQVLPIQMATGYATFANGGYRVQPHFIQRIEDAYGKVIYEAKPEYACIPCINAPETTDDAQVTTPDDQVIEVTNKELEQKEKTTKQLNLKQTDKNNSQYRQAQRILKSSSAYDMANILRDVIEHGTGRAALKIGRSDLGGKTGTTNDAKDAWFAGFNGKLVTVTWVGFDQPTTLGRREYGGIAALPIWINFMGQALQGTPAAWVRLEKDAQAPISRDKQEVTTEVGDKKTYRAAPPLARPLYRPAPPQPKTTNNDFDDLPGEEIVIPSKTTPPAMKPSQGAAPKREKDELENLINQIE
Description: Bocillin-FL competition binding via gel filtration, A. baumannii PBP1a. The following applies: competition binding assay using Bocillin-FL via gel filtration; read-out: A. baumannii PBP1a Potency. In outline:
as §1

Another assay relates to P. aeruginosa CDC-0090. Description: microbe, parasite or virus in culture. The class given is cell-based. The following applies: Pseudomonas aeruginosa, CDC0090, read-out: Minimum inhibitory concentration, P. aeruginosa CDC-0090.

Sequence of A. baumannii PBP2 (D0C8Z9 whole entry): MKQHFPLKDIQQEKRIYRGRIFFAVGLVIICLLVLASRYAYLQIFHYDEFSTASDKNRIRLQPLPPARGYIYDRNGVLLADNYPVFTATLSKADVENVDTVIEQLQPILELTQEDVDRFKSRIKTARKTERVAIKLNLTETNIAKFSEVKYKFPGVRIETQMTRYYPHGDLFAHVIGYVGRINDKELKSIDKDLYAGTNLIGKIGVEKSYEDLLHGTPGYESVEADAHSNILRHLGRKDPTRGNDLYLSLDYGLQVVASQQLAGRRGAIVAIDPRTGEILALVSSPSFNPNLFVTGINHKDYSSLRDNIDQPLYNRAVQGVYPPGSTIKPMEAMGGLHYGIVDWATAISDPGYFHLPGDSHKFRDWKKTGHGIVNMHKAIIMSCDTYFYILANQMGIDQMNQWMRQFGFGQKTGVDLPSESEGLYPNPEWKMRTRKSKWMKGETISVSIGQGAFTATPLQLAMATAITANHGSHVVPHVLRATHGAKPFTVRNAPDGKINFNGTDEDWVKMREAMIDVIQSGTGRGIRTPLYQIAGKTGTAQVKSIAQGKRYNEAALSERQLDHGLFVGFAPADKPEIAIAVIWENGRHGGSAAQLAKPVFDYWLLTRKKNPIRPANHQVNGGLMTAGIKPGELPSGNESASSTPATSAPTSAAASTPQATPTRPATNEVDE

With `O=C(O)c1c(F)ccc2c1OB(O)[C@@H](NC(=O)[C@H](NC(=O)N1CCN(C3CCN(Cc4cncc(O)c4)CC3)C1=O)c1cc(F)c(O)c(O)c1Cl)C2` (single isomer, unassigned) [Example 614], the MIC in assay [1] was under 1 µg/mL; in the assay on P. aeruginosa CDC-0095, 2 to 4 µg/mL (≈ 2.68 to 5.37 µM); with P. aeruginosa CDC-0110, under 1 µg/mL; in the assay on P. aeruginosa ATCC 27853, under 1 µg/mL; in [2], under 1 µg/mL; in the assay on B. pseudomallei Bp82, under 1 µg/mL. Besides, the MIC is 2 to 4 µg/mL (≈ 2.68 to 5.37 µM) in the assay on P. aeruginosa CDC-0054, under 1 µg/mL in assay [3], under 1 µg/mL in the assay on P. aeruginosa ATCC 35151 and under 1 µg/mL in the assay with P. aeruginosa CDC-0090. For the same molecule, the pEC50 on A. baumannii PBP2 and at A. baumannii PBP1a was 4.30 to 5.00 throughout.

In the case of `NCc1cc(O)cc(CN2CCC(N3CCN(C(=O)N[C@@H](C(=O)N[C@H]4Cc5ccc(F)c(C(=O)O)c5OB4O)c4cc(F)c(O)c(O)c4Cl)C3=O)CC2)c1` (single isomer, unassigned) [Example 617], the MIC (in [1]; with P. aeruginosa CDC-0095; with P. aeruginosa CDC-0110; in the assay with P. aeruginosa ATCC 27853; in [2]; in the assay with B. pseudomallei Bp82) was under 1 µg/mL in each case. Moreover, the MIC (with P. aeruginosa CDC-0054; in [3]; in the assay with P. aeruginosa ATCC 35151; in the assay with P. aeruginosa CDC-0090) was under 1 µg/mL each time. The pEC50 at A. baumannii PBP2 is 3.60 to 4.30; at A. baumannii PBP1a, 4.30 to 5.00.

Regarding `Nc1ccc(CN2CCC(N3CCN(C(=O)N[C@@H](C(=O)N[C@H]4Cc5ccc(F)c(C(=O)O)c5OB4O)c4cc(F)c(O)c(O)c4Cl)C3=O)CC2)cn1` (single isomer, unassigned) [Example 618], the MIC in assay [1] was under 1 µg/mL; with P. aeruginosa CDC-0095, 2 to 4 µg/mL (≈ 2.69 to 5.38 µM); in the assay on P. aeruginosa CDC-0110, under 1 µg/mL; in the assay with P. aeruginosa ATCC 27853, under 1 µg/mL; in assay [2] it was under 1 µg/mL; in the assay with B. pseudomallei Bp82 it was under 1 µg/mL. Besides, the MIC (in the assay with P. aeruginosa CDC-0054; in assay [3]; with P. aeruginosa ATCC 35151; in the assay on P. aeruginosa CDC-0090) was under 1 µg/mL each time. For the same molecule, the pEC50 on A. baumannii PBP2 and on A. baumannii PBP1a was 4.30 to 5.00 throughout.

On to `O=C(O)c1c(F)ccc2c1OB(O)[C@@H](NC(=O)[C@H](NC(=O)N1CCN(C3CCN(Cc4ccncn4)CC3)C1=O)c1cc(F)c(O)c(O)c1Cl)C2` [Example 602, (R)-3-((R)-2-(2-chloro-5-fluoro-3,4-dihydroxyphenyl)-2-(2-oxo-3-(1-(pyrimidin-4-ylmethyl)piperidin-4-yl)imidazolidine-1-carboxamido)acetamido)-7-fluoro-2-hydroxy-3,4-dihydro-2H-benzo[e][1,2]oxaborinine-8-carboxylic acid], for which the MIC was under 1 µg/mL in [1]; 2 to 4 µg/mL (≈ 2.74 to 5.48 µM) in the assay on P. aeruginosa CDC-0095; under 1 µg/mL in the assay with P. aeruginosa CDC-0110; under 1 µg/mL in the assay with P. aeruginosa ATCC 27853; under 1 µg/mL in assay [2]; under 1 µg/mL in the assay on B. pseudomallei Bp82. Further, the MIC (with P. aeruginosa CDC-0054; in [3]; in the assay on P. aeruginosa ATCC 35151; with P. aeruginosa CDC-0090) was under 1 µg/mL each time. Besides, the figures for the pEC50 on A. baumannii PBP2 and on A. baumannii PBP1a were 4.30 to 5.00 and over 5.00, respectively.

Take `Nc1cc(CN2CCC(N3CCN(C(=O)N[C@@H](C(=O)N[C@H]4Cc5ccc(F)c(C(=O)O)c5OB4O)c4cc(F)c(O)c(O)c4Cl)C3=O)CC2)ccn1` [Example 619, (R)-3-((R)-2-(3-(1-((2-aminopyridin-4-yl)methyl)piperidin-4-yl)-2-oxoimidazolidine-1-carboxamido)-2-(2-chloro-5-fluoro-3,4-dihydroxyphenyl)acetamido)-7-fluoro-2-hydroxy-3,4-dihydro-2H-benzo[e][1,2]oxaborinine-8-carboxylic acid]: the MIC (in [1]; with P. aeruginosa CDC-0095; in the assay with P. aeruginosa CDC-0110; with P. aeruginosa ATCC 27853; in assay [2]; with P. aeruginosa CDC-0054) was under 1 µg/mL throughout. Moreover, the MIC (in assay [3]; in the assay with P. aeruginosa ATCC 35151; in the assay on P. aeruginosa CDC-0090) was under 1 µg/mL throughout. The figures for the pEC50 at A. baumannii PBP2 and on A. baumannii PBP1a were 4.30 to 5.00 and over 5.00, respectively.
